In patent US11298347B2, “Methods of diagnosing and treating Tourette syndrome” (THE CHILDREN'S HOSPITAL OF PHILADELPHIA, priority 2015, dated 2022):

How the values were obtained:
[1] = tested on: group I and group II/III mGluRs; conditions: in vitro studies (Hirouchi 2000); cited from earlier work
[2] = tested on: adenylate cyclase activity; conditions: Oka 1997; cited from earlier work
[3] = prior human studies; cited from earlier work
[4] = open-label Phase Ib clinical trial of NFC-1 in adolescent ADHD subjects with a genetic alteration in an mGluR network gene; assay type: in vivo, human
Description: An open-label Phase Ib clinical trial was conducted to investigate the safety, pharmacokinetics and efficacy of NFC-1 (fasoracetam monohydrate) in adolescent subjects between the ages of 12 and 17 previously diagnosed with ADHD who also had at least one genetic alteration in an mGluR network gene.
The study included 30 ADHD subjects who were between ages 12 and 17, of any ancestry or race, of weight within the 5th to 95th percentile for their age, and otherwise judged to be in good medical health. […] Seventeen of the 30 subjects have a CNV in a tier 1 mGluR network gene, while 7 subjects have a CNV in a tier 2 gene and 6 in a tier 3 gene.
Exclusion criteria comprised subjects suffering from a clinically significant illness, either mental or physical, that, in the investigator's opinion, might confound the results of the study or that might prevent them from completing the study, subjects that are pregnant or nursing, subjects that test positive for illicit drugs of that have a history of drug abuse, subjects that consume alcoholic beverages, or subjects for which the investigator is otherwise concerned regarding their compliance or suitability.
NFC-1 capsules of either 50 mg or 200 mg comprising fasoracetam monohydrate as active ingredient and placebo capsules comprising microcellulose were used for the study. The design of the trial was a phone screening (1 day), enrollment phase (1 to 2 days), a wash-out phase for subjects currently on ADHD medications (1-14 days), pharmacokinetic (PK) assessment (2 days), followed by a dose-escalation phase (35 days) and a follow-up phone visit approximately four weeks after the last dose, for a maximum of 127 days. All ADHD medications were discontinued during the wash-out phase prior to the study. The wash-out period for stimulants was 2-3 days and that for atomoxetine or noradrenergic agonists was 10-12 days. No new ADHD medications were started during the study.
A dose-escalation phase of the trial ran over a 5-week period, after the initial wash-out period and the PK and initial safety assessments. During week 1, all subjects were administered placebo capsules twice daily. After one week of placebo treatment, patients were started on 50 mg bid NFC-1 for 1 week. If safety and responsiveness data from prior dose level of fasoracetam indicated it was appropriate, subjects were then escalated to the next higher dose (100, 200, or 400 mg).
Of the 30 trial subjects, 3 received a maximum dose of 100 mg, 9 received a maximum dose of 200 mg, and the remaining 18 received a maximum dose of 400 mg.

[5] = cited from earlier work

| SMILES | stimulation of mGluRs [1] | adenylate cyclase activity by stimulating group II and III mGluRs [2] | adenylate cyclase activity through activation of group I mGluRs [2] | half-life [3] [h] | OCD symptoms during therapy ([4]; all eight subjects with symptoms of OCD) | dermatillomania symptoms ([4]; one subject with OCD and history of ear scratching) | bleeding ulcer from ear scratching ([4]; one subject with OCD and history of ear scratching (dermatillomania)) | tics during therapy ([4]; two individuals with history of recurrent tics, 50-400 mg bid dose escalation) | safety and tolerability ([5]; Phase I-III clinical trials) | effects on psychiatric symptoms ([5]; Phase III data, cerebral infarct patients and adult dementia patients with cerebrovascular diseases) | efficacy in dementia ([5]; Phase III trials, dementia-related cognitive impairment) |
| --- | --- | --- | --- | --- | --- | --- | --- | --- | --- | --- | --- |
| O=C1CC[C@H](C(=O)N2CCCCC2)N1 [Fasoracetam, fasoracetam] | can stimulate both group I and group II/III mGluRs | may also inhibit adenylate cyclase activity | may stimulate adenylate cyclase activity | 5 to 6.5 |  |  |  |  |  |  |  |
| O=C1CC[C@H](C(=O)N2CCCCC2)N1 [NFC-1, fasoracetam monohydrate] |  |  |  |  | improved | reduced | healed | did not demonstrate tics | generally safe and well tolerated | beneficial effects | did not show sufficient efficacy |
